What all share (format): cell-based
Test [1] deals with T1, mouse SMO^WT (Mus musculus, UniProt P56726).
T1 construct: expressed in transfected cells
Put plainly: Mouse assay: Gli1 qPCR in MEF cells stably expressing mouse SMO WT. The following applies: mSHh-treated, 24 hours; for IC50: Gli1 inhibition by qPCR, read-out: Mouse WT pIC50 (converted); for Mouse WT % Inh: percentage Gli1 inhibition. A digest of the protocol:
(§1)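 MEFs stably expressing the SMO variant pre-treated with compound 1 h, then stimulated with mSHh and incubated 24 h at 37 °C. Gli1 mRNA quantified by one-step TaqMan qPCR with Gusb reference, four replicates per concentration; expressed as % Gli1 inhibition relative to mSHh-treated controls.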
On the technique in general: Real-time PCR tracks product formation cycle by cycle.

The target of test [2] is T2, mouse SMO^D473H (Mus musculus, UniProt P56726, D477H).
T2 construct: expressed in transfected cells
The test is described as follows: Mouse assay: Gli1 qPCR in MEF cells stably expressing mouse SMO D473H. The following applies: mSHh-treated, 24 hours; for IC50: Gli1 inhibition by qPCR, read-out: Mouse D473H pIC50 (converted); for Mouse D473H % Inh: percentage Gli1 inhibition. Put shortly: as §1

In test [3] the target is T3, mouse SMO^W535L (Mus musculus, UniProt P56726, W539L).
T3 construct: expressed in transfected cells
The test is described as follows: Mouse assay: Gli1 qPCR in MEF cells stably expressing mouse SMO W535L. Conditions: mSHh-treated, 24 hours; for IC50: Gli1 inhibition by qPCR, read-out: Mouse W535L pIC50 (converted); for Mouse W535L % Inh: percentage Gli1 inhibition. A digest of the protocol:
as §1

Test [4] deals with T4, human SMO D473H (Homo sapiens, UniProt Q99835, D473H).
T4 construct: expressed in transfected cells; host or cells: SMO knock-out mouse embryonic fibroblasts (MEF SMO-/-), BacMam transduction
Put plainly: Human assay: Gli1 qPCR in MEF SMO-/- cells BacMam-transduced with hSMO D473H variant. Conditions: mSHh-treated, 24 hours; for IC50: Gli1 inhibition by qPCR, read-out: Human D473H pIC50 (converted); for Human D473H % Inh: percentage Gli1 inhibition. The protocol: Cell culture. All materials were purchased from Sigma-Aldrich, unless otherwise stated.
(§2) BacMam transduction and compound treatment. MEF^SMO−/− cells were transduced with BacMam virus (MOI 1:10 in the presence of 4.2 mM valproic acid) containing either the hSMO WT or desired receptor variant sequence. Transduced cells were seeded at 6000 cells per well in a Poly-D-Lysine coated 384-well plate (Greiner) before the spent culture medium was removed on the following day and replaced with assay medium (OptiMEM (Gibco) supplemented with 50 U/mL penicillin and 5 mg/mL streptomycin (supplied as a mixture), 0.1 mMMEM Non-Essential Amino Acids (supplied as 100× solution, ThermoFisher), 1 mM sodium pyruvate and 10 mM HEPES) containing test compounds at 2.5× final assay concentrations.
(§3) Cell lysis and one-step qPCR. The Cells-to-CT™ 1-Step TaqMan® Kit was used in conjunction with TaqMan primer-probe assays for the detection of Gill (FAM, Mm00494654_m1) and Gusb (VIC, Mm01197698_m1) genes (all purchased from Life Technologies). Following 24 hours cell treatment, spent medium was removed and cells were washed with PBS before the application of lysis and stop solution as per manufacturer's instructions. The qPCR reactions were run in a 384-well PCR plate using master mix prepared according to manufacturer's instructions and cell lysate samples from treatment wells. Real-time PCR amplification was detected using the Bio-Rad CFX384 Touch PCR system. Four experimental replicates (two cell replicates and two qPCR replicates) were performed for each compound concentration tested. Real-time data were analysed using the CFX Maestro software (Bio-Rad) and obtained expression values were converted to percentage Gill inhibition by normalising to the average Gill expression of mSHh-treated control samples

Test [5] deals with T5, human SMO W535L (Homo sapiens, UniProt Q99835, W535L).
T5 construct: expressed in transfected cells; host or cells: SMO knock-out mouse embryonic fibroblasts (MEF SMO-/-), BacMam transduction
Put plainly: Human assay: Gli1 qPCR in MEF SMO-/- cells BacMam-transduced with hSMO W535L variant. The following applies: mSHh-treated, 24 hours; for IC50: Gli1 inhibition by qPCR, read-out: Human W535L pIC50 (converted); for Human W535L % Inh: percentage Gli1 inhibition. The protocol: (§4) Cell culture. All materials were purchased from Sigma-Aldrich, unless otherwise stated. SMO knock-out mouse embryonic fibroblasts (MEF^SMO−/−) were maintained in Dulbecco's modified Eagle's medium (DMEM)/high-glucose medium supplemented with 10% foetal bovine serum (FBS, Invitrogen), 50 U/mL penicillin and 5 mg/mL streptomycin (supplied as a mixture), 0.1 mMMEM Non-Essential Amino Acids (supplied as 100× solution, ThermoFisher) and 1 mM sodium pyruvate at 37° C. in a humidified 95% air/5% CO2 atmosphere.
as §2, with “concentrations. After 1 hour incubation, cells were treated with assay medium containing mSHh prepared at 2.5× of final assay concentrations specified in the text and incubated for a further 24 hours at 37° C. in a humidified 95% air/5% […] atmosphere prior to qPCR analysis.” for “concentrations.”
as §3

Test [6] concerns the target T6, hSMO WT (Homo sapiens, UniProt Q99835).
T6 construct: expressed in transfected cells; host or cells: SMO knock-out mouse embryonic fibroblasts (MEF SMO-/-), BacMam transduction
Put plainly: Human assay: Gli1 qPCR in MEF SMO-/- cells BacMam-transduced with hSMO WT. The following applies: mSHh-treated, 24 hours, percentage Gli1 inhibition. The protocol:
as §4
as §2, with “concentrations. After 1 hour incubation, cells were treated with assay medium containing mSHh prepared at 2.5× of final assay concentrations specified in the text and incubated for a further 24 hours at 37° C. in a humidified 95% air/5% […] atmosphere prior to qPCR analysis.” for “concentrations.”
as §3

The structures appear in SMILES notation.

T3 sequence (P56726 33-793 W539L): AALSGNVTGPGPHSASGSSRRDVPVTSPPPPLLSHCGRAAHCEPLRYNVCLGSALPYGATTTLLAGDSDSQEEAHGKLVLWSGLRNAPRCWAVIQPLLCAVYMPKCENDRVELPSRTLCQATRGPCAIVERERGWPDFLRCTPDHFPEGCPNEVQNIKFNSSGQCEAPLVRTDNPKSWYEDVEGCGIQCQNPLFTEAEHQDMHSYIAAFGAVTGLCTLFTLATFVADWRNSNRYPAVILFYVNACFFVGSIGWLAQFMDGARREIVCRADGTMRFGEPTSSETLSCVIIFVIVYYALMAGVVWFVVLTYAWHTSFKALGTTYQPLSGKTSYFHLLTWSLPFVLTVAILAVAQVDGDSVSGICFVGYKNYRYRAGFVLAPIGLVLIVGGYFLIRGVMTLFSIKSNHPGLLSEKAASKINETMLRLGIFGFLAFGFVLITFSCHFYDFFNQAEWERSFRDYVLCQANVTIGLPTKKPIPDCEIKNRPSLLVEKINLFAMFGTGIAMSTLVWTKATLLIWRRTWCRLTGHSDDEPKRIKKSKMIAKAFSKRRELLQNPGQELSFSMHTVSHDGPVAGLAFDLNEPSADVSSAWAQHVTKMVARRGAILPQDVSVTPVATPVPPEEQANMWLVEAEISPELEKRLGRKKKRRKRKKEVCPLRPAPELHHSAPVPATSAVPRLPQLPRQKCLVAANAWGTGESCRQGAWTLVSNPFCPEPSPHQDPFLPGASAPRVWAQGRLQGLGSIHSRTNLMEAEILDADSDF
T5 sequence (Q99835 28-787 W535L): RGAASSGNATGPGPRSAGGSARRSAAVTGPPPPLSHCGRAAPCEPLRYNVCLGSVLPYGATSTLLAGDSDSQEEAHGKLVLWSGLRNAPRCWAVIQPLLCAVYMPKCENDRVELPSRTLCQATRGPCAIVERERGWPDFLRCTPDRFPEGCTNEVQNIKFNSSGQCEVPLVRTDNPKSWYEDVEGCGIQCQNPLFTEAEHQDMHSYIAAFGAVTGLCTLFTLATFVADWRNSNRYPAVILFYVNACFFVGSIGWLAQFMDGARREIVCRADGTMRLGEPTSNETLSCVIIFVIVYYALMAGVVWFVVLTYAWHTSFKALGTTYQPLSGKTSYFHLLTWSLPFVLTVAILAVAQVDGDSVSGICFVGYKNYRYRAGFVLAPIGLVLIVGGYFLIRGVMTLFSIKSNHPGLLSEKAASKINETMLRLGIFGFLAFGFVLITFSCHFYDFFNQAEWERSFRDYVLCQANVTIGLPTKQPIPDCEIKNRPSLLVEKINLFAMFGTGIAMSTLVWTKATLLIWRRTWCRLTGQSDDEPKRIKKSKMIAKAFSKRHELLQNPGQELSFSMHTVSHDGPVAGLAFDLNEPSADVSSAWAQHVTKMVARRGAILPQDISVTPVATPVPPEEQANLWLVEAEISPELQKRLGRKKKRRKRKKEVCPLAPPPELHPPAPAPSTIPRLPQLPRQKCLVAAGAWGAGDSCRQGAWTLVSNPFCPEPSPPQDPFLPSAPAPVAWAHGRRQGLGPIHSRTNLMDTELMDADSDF
T2 sequence (P56726 33-793 D477H): as the sequence (P56726 33-793 W539L) above, with D445H, L507W counted along it
T1 sequence (P56726 33-793): as the sequence (P56726 33-793 W539L) above, with L507W counted along it
T4 sequence (Q99835 28-787 D473H): as the sequence (Q99835 28-787 W535L) above, with D446H, L508W counted along it
T6 sequence (Q99835 28-787): as the sequence (Q99835 28-787 W535L) above, with L508W counted along it

`CC1CN(Cc2cccc(C(=O)Nc3ccc(-c4nc(C5CC5)n[nH]4)cc3)c2)CCS1(=O)=O` (stereo not shown) [Example 1-2, N-[4-(3-Cyclopropyl-1H-1,2,4-triazol-5-yl)phenyl]-3-[(2-methyl-1,1-dioxo-1,4-thiazinan-4-yl)methyl]benzamide]: in test [1], the IC50 is 15.8 nM and the “Mouse WT % Inh” value was 97.3%. Besides, in test [2], the IC50 is 126 nM and the “Mouse D473H % Inh” value stood at 95.6%. In test [3], the IC50 was 200 nM and the “Mouse W535L % Inh” value is 63.3%. In addition, in test [4], the IC50 was 200 nM and the “Human D473H % Inh” value was found to be 85%. In test [5], the IC50 was 20 nM and the “Human W535L % Inh” value came out at 78.2%.
As to `O=C(Nc1ccc(-c2nc(C3CC3)n[nH]2)cc1)c1cc(F)cc(CN2CCS(=O)(=O)CC2)c1` [Example 2-2, N-[4-(5-Cyclopropyl-1H-1,2,4-triazol-3-yl)phenyl]-3-[(1,1-dioxo-1,4-thiazinan-4-yl)methyl]-5-fluorobenzamide], in test [1], the IC50 was 10 nM and the “Mouse WT % Inh” value was 95.8%. Further, in test [2], the IC50 is 126 nM and the “Mouse D473H % Inh” value is on record as 91.3%. In addition, in test [3], the IC50 was 126 nM and the “Mouse W535L % Inh” value is 67.2%. Besides, in test [4], the IC50 was 794 nM and the “Human D473H % Inh” value was found to be 73.6%. Moreover, in test [5], the IC50 was 7.94 nM and the “Human W535L % Inh” value was 79.1%.
Consider `O=C(Nc1ccc(-c2nc(C3CC3)n[nH]2)cc1)c1cc(Cl)cc(CN2CCS(=O)(=O)CC2)c1` [Example 2-4, 3-Chloro-N-[4-(5-cyclopropyl-1H-1,2,4-triazol-3-yl)phenyl]-5-[(1,1-dioxo-1,4-thiazinan-4-yl)methyl]benzamide], for which, in test [1], the IC50 was 5.01 nM and the “Mouse WT % Inh” value worked out at 95.4%. Besides, in test [2], the IC50 was 39.8 nM and the “Mouse D473H % Inh” value stood at 95.4%. Moreover, in test [3], the IC50 is 39.8 nM and the “Mouse W535L % Inh” value was determined as 60.2%. Moreover, in test [4], the IC50 was 631 nM and the “Human D473H % Inh” value worked out at 76.5%. For the same compound, in test [5], the IC50 was 5.01 nM and the “Human W535L % Inh” value is recorded as 87.8%.
Regarding `O=C(Nc1ccc(-c2cc(C3CC3)n[nH]2)cc1)c1ccc(Cl)c(CN2CCS(=O)(=O)CC2)c1` [Example 4-20, 4-chloro-N-[4-(5-cyclopropyl-1H-pyrazol-3-yl)phenyl]-3-[(1,1-dioxo-1,4-thiazinan-4-yl)methyl]benzamide], in test [1], the IC50 is 2.51 nM and the “Mouse WT % Inh” value was 99.1%. In test [2], the IC50 is 31.6 nM and the “Mouse D473H % Inh” value worked out at 98.4%. Further, in test [3], the IC50 is 10 nM and the “Mouse W535L % Inh” value is listed as 51.6%.
Turning to `O=C(Nc1ccc(-c2cc(Cc3ccccc3)n[nH]2)cc1)c1cccc(CN2CCS(=O)(=O)CC2)c1` [Example 4-21, N-[4-(3-Benzyl-1H-pyrazol-5-yl)phenyl]-3-[(1,1-dioxo-1,4-thiazinan-4-yl)methyl]benzamide], in test [1], the IC50 is 6.31 nM and the “Mouse WT % Inh” value is reported as 99.3%. Also, in test [2], the IC50 is 63.1 nM and the “Mouse D473H % Inh” value was 99.4%. Besides, in test [3], the IC50 is 39.8 nM and the “Mouse W535L % Inh” value worked out at 76.6%.
Turning to `Cn1nc(-c2ccc(NC(=O)c3ccc(Cl)c(CN4CCS(=O)(=O)CC4)c3)cc2)cc1C1CC1` [Example 4-24, 4-Chloro-N-[4-(5-cyclopropyl-1-methylpyrazol-3-yl)phenyl]-3-[(1,1-dioxo-1,4-thiazinan-4-yl)methyl]benzamide], in test [1], the IC50 was 0.631 nM and the “Mouse WT % Inh” value is listed as 97.9%. In addition, in test [2], the IC50 was 7.94 nM and the “Mouse D473H % Inh” value came out at 98.1%. Further, in test [3], the IC50 was 10 nM and the “Mouse W535L % Inh” value amounted to 70.0%.
For `Cc1c(-c2ccc(NC(=O)c3cccc(CN4CCS(=O)(=O)CC4)c3)cc2)nn(C)c1C1CC1` [Example 4-25, N-[4-(5-Cyclopropyl-1,4-dimethylpyrazol-3-yl)phenyl]-3-[(1,1-dioxo-1,4-thiazinan-4-yl)methyl]benzamide], in test [1], the IC50 was 0.398 nM and the “Mouse WT % Inh” value worked out at 98.3%. Further, in test [2], the IC50 was 5.01 nM and the “Mouse D473H % Inh” value is recorded as 98.6%. Besides, in test [3], the IC50 was 15.8 nM and the “Mouse W535L % Inh” value is 65.7%.
Take `Cl.Cn1nc(-c2ccc(NC(=O)c3cccc(CN4CCS(=O)(=O)CC4)c3)cc2)nc1C1CC1` [Example 4-27, N-[4-(5-cyclopropyl-1-methyl-1,2,4-triazol-3-yl)phenyl]-3-[(1,1-dioxo-1,4-thiazinan-4-yl)methyl]benzamide]: in test [1], the IC50 is 6.31 nM and the “Mouse WT % Inh” value stood at 99.5%. In test [2], the IC50 was 50.1 nM and the “Mouse D473H % Inh” value was 98.5%. Further, in test [3], the IC50 is 158 nM and the “Mouse W535L % Inh” value was 77.7%.
Consider `Cc1oc(-c2ccc(NC(=O)c3ccc(Cl)c(CN4CCS(=O)(=O)CC4)c3)cn2)nc1C1CC1` [Example 5-2, 4-Chloro-N-[6-(4-cyclopropyl-5-methyl-1,3-oxazol-2-yl)pyridin-3-yl]-3-[(1,1-dioxo-1,4-thiazinan-4-yl)methyl]benzamide], for which, in test [1], the IC50 is 2 nM and the “Mouse WT % Inh” value amounted to 98.8%. Further, in test [2], the IC50 was 7.94 nM and the “Mouse D473H % Inh” value amounted to 98.1%. In addition, in test [3], the IC50 was 63.1 nM and the “Mouse W535L % Inh” value amounted to 82.7%.
As to `Cn1nc(-c2ccc(NC(=O)c3cccc(CN4CCS(=O)(=O)CC4)c3)cn2)cc1C1CC1` [Example 5-4, N-[6-(5-Cyclopropyl-1-methylpyrazol-3-yl)pyridin-3-yl]-3-[(1,1-dioxo-1,4-thiazinan-4-yl)methyl]benzamide], in test [1], the IC50 was 7.94 nM and the “Mouse WT % Inh” value came out at 97.3%. In test [2], the IC50 was 126 nM and the “Mouse D473H % Inh” value came out at 97.0%. In test [3], the IC50 is 251 nM and the “Mouse W535L % Inh” value is on record as 66.4%. In test [4], the IC50 is 794 nM and the “Human D473H % Inh” value was 107.7%. In addition, in test [5], the IC50 was 39.8 nM and the “Human W535L % Inh” value is 85.9%.
Turning to `Cn1nc(-c2ccc(NC(=O)c3cccc(CN4CCS(=O)(=O)CC4)c3)nc2)cc1C1CC1` [Example 5-5, N-[5-(5-cyclopropyl-1-methylpyrazol-3-yl)pyridin-2-yl]-3-[(1,1-dioxo-1,4-thiazinan-4-yl)methyl]benzamide], in test [1], the IC50 was 31.6 nM and the “Mouse WT % Inh” value was determined as 97.7%. Besides, in test [2], the IC50 is 100 nM and the “Mouse D473H % Inh” value is 93.2%. In test [3], the IC50 was 631 nM and the “Mouse W535L % Inh” value came to 61.1%.
Regarding `CS(=O)(=O)c1ccc(C(=O)Nc2ccc(Cl)c(-c3ccccn3)c2)c(Cl)c1` [Vismodegib, reference compound], the “Human WT % Inh” value in test [6] is 100.1%. Further, in test [4], the “Human D473H % Inh” value came to 45.4%. Moreover, in test [5], the “Human W535L % Inh” value stood at 92.6%.

The record behind these values is patent publication US20250136559A1, “SMO MODULATOR COMPOUNDS” (OMASS THERAPEUTICS LIMITED, priority 2022, published 2025).
